Laboratory results taken from US20190048052A1, “ANTI-MICROBIAL PEPTIDES AND COATINGS” (Board of Regents of the University of Nebraska, priority 2016, published 2019).
≈ marks a conversion by molar mass, not a printed value. Where two headings read alike, the source gives them in different places. Residues, ends and D or L forms follow the SMILES beside them.

Tests used:
[1] = MTS cytotoxicity assay; type: cell-based; conditions: human, HeLa CCL-2 cells
Procedure: (§1) HeLa CCL-2 epithelial adenocarcinoma cells from American Type Culture Collection (ATCC) were maintained in DMEM high glucose media with 4 mM L-glutamine (NyClone) and 100 U/mL penicillin, 100 μg/mL streptomycin (pen/strep) (Life Technologies), and 10% (v/v) inactivated fetal bovine serum (FBS) (NyClone). Cells were grown in 5% CO2 at 37° C. and were detached from the culturing dish at 80% confluency using 0.025% trypsin-EDTA (NyClone) treatment. Peptide influence on the cell viability was estimated by using the MTS assay according to the manufacturer's protocol (MTS, CellTiter96® AQ One Solution Cell Proliferation Assay, Promega) with minor modifications and as described elsewhere (Mishra et al. (2015) RSC Advances 5:59758-59769). In short, cells were cultured in flat bottomed 96 well microtiter plates (Corning Life Science) at a seeding density of 20,000 cells/well. At confluence ˜100% achieved after 20-24 hours of cultivation, the cells were washed twice with 100 μL Dulbecco's Phosphate Buffered Saline (Life Technologies). Further, 90 μL of DMEM media with 10% FBS, pen/step was added before exposure to 10 μL of the peptide solution in the concentration range 12.5-100 μM. Plates were incubated at 37° C. After 1 hour, 10 μL MTS, CellTiter96® was added. Plates were further incubated for another 2 hours at 37° C. and finally, the absorbance was measured on ChroMate® reader (Awareness Technology) at 492 nm. Culture medium and 0.2% SDS were used as negative and positive controls, respectively.

[2] = test system: B. subtilis 168; type: cell-based, Bacillus subtilis
How it was run: (§2)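 Broth microdilution: exponential-phase bacteria at 10^6 CFU incubated with serially diluted peptides ~20 hours at 37° C, read at 630 nm to give MICs. For S. aureus USA300, effects of up to 10% human serum, pH 6.8/7.4/8.0 and 150 mM NaCl also tested.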

[3] = test system: Candida albicans ATCC 10231; type: cell-based; conditions: ATCC 10231, 48 h
Procedure: (§3) Fungal strains used in this study include Candida albicans ATCC 10231, C. glabrata ATCC 2001 and C. tropicalis ATCC 13803. The fungi were grown in Remel Dex broth (Thermo Fisher Scientific, KS). Antifungal assays were conducted essentially as described for antibacterial assays above, except for a higher starting density at an OD600 0.02 and a longer incubation time of ˜48 hours prior to microplate reading (Mishra et al. (2015) RSC Advances 5:59758-59769).

[4] = Hemolytic assay; type: cell-based; conditions: red blood cells, hemolysis
Procedure: Hemolytic analysis of selected peptides was performed using an established protocol (Mishra et al. (2015) RSC Advances 5:59758-59769). Briefly, human blood cells (UNMC Blood Bank) were washed three times with phosphate buffer saline (PBS) and diluted to a 2% solution. After peptide treatment, incubation at 37° C. for one hour, and centrifugation at 13,000 rpm, aliquots of the supernatant were transferred to a fresh 96-well microplate. To assess peptide cytotoxicity, the amount of hemoglobin released was measured at 545 nm. The percent lysis was calculated by assuming 100% release when human blood cells were treated with 1% TRITON™ X-100, and 0% release when incubated with PBS buffer. The hemolytic assays using chicken, bovine, and porcine blood cells (Lampire Biological Laboratories, Inc.) were performed in the same manner.

[5] = test system: C. glabrata ATCC 2001; type: cell-based, Candida glabrata; conditions: ATCC 2001, 48 h
Procedure: as §3

[6] = test system: C. tropicalis ATCC 13803; type: cell-based, Candida tropicalis; conditions: ATCC 13803, 48 h
Procedure: as §3

[7] = MTS cytotoxicity assay; type: cell-based; conditions: human
Procedure: as §1
Human skin HaCaT (immortalized keratinocyte from AddexBio, T0020001) and kidney HEK293 cells were also cultivated for cytotoxicity evaluation of the peptides in a similar manner.

[8] = test system: S. epidermidis 1457; type: cell-based, Staphylococcus epidermidis
How it was run: as §2

[9] = test system: E. coli K12; type: cell-based, Escherichia coli; conditions: K12
How it was run: as §2

[10] = test system: S. aureus USA300; type: cell-based, Staphylococcus aureus; conditions: USA300
Procedure: The minimal bactericidal concentration (MBC) was determined by plating 50 μl of the content in the clear wells of the above MIC assays. MBC was determined on the petri dishes without bacterial colony formation after overnight growth (Wang et al. (2012) Biochemistry 51:653-664).

[11] = test system: S. aureus USA300; type: cell-based, Staphylococcus aureus; conditions: for Antimicrobial activity (MIC) 150 mM NaCl / Antimicrobial activity (MIC) USA300 / MIC S. aureus USA300: USA300; for Antimicrobial activity (MIC) pH 6.8: USA300, pH 6.8; for Antimicrobial activity (MIC) Normal medium (pH 7.4): USA300, pH 7.4; for Antimicrobial activity (MIC) pH 8: USA300, pH 8
How it was run: as §2

[12] = test system: S. aureus UAMS-1; type: cell-based, Staphylococcus aureus
How it was run: as §2

[13] = test system: S. aureus Newman; type: cell-based, Staphylococcus aureus
How it was run: as §2

[14] = test system: S. aureus Mu50; type: cell-based, Staphylococcus aureus
How it was run: as §2

[15] = chicken, read-out: LC50 Chicken RBCs
[16] = human, read-out: LC50 Human RBCs
[17] = pig, read-out: LC50 Porcine RBCs

Compound	CC50 at 1 hour [1]	MIC B. subtilis 168 [2]	MIC Candida albicans [3]	HC50 at 1 hour [4, 15]	HC50 at 1 hour [4, 16]	HC50 at 1 hour [4, 17]	MIC Candida glabrata [5]	MIC Candida tropicalis [6]	CC50 at 1 hour ([7]; HEK293 cells)	CC50 at 1 hour ([7]; HaCaT cells)	MIC S. epidermidis 1457 [8]	MIC E. coli K12 [9]	MBC S. aureus USA300 [10]	change in MIC on drop of pH from 8 to 6.8 ([11]; S. aureus USA300)	Antimicrobial activity (MIC) 150 mM NaCl [11]	Antimicrobial activity (MIC) USA300 [11]	MIC S. aureus USA300 [11]	Antimicrobial activity (MIC) pH 6.8 [11]	Antimicrobial activity (MIC) Normal medium (pH 7.4) [11]	Antimicrobial activity (MIC) pH 8 [11]	other results
CC[C@H](C)[C@H](NC(=O)[C@H](CCCCN)NC(=O)[C@H](CCCNC(=N)N)NC(=O)[C@H](CC(C)C)NC(=O)[C@H](Cc1c[nH]c2ccccc12)NC(=O)[C@H](Cc1c[nH]c2ccccc12)NC(=O)[C@@H](N)Cc1c[nH]c2ccccc12)C(=O)N[C@@H](Cc1c[nH]c2ccccc12)C(N)=O [TetraF2W-RK, WWWLRKIW] (H-WWWLRKIW-NH2; N-terminus assumed)	> 100 µM	6.2 µM (≈ 7.89 µg/mL)	12.5 µM (≈ 15.9 µg/mL)	35 µM	30 µM	40 µM	12.5 µM (≈ 15.9 µg/mL)	3.1 to 6.2 µM	60 µM	60 µM	6.2 µM (≈ 7.89 µg/mL)	25 µM (≈ 31.8 µg/mL)	12.5 µM (≈ 15.9 µg/mL)	two-fold	3.1 µM	3.1 µM	3.1 µM (≈ 3.94 µg/mL)	6.2 μM	3.1 μM	3.1 μM	Antimicrobial activity (MIC) UAMS-1 [12]: 6.2 µM; Antimicrobial activity (MIC) Newman [13]: 3.1 µM; Antimicrobial activity (MIC) Mu50 [14]: 3.1 µM
CC[C@H](C)[C@H](NC(=O)[C@H](CCCNC(=N)N)NC(=O)[C@H](CCCNC(=N)N)NC(=O)[C@H](CC(C)C)NC(=O)[C@H](Cc1c[nH]c2ccccc12)NC(=O)[C@H](Cc1c[nH]c2ccccc12)NC(=O)[C@@H](N)Cc1c[nH]c2ccccc12)C(=O)N[C@@H](Cc1c[nH]c2ccccc12)C(N)=O [TetraF2W-RR, WWWLRRIW] (H-WWWLRRIW-NH2; N-terminus assumed)	60 µM	3.1 to 6.2 µM	25 µM (≈ 32.5 µg/mL)	55 µM	20 µM	40 µM	>25 µM	3.1 µM (≈ 4.03 µg/mL)	70 µM	70 µM	6.2 to 12.5 µM	25 µM (≈ 32.5 µg/mL)	3.1 µM (≈ 4.03 µg/mL)	two-fold	3.1 µM	1.56 to 3.1 µM	1.6 to 3.1 µM	6.2 μM	1.56-3.1 μM	3.1 μM	fold more potent than temporin-SHf (anti-MRSA) ([11]; S. aureus USA300): 8 fold; Antimicrobial activity (MIC) UAMS-1 [12]: 6.2 µM; Antimicrobial activity (MIC) Newman [13]: 3.1 µM; Antimicrobial activity (MIC) Mu50 [14]: 3.1 µM
